Source: patent US20220169632A1, “METHODS AND MATERIALS FOR INCREASING OR MAINTAINING NICOTINAMIDE MONONUCLEOTIDE ADENYLYL TRANSFERASE-2 (NMNAT2) POLYPEPTIDE LEVELS” (University of Pittsburgh - Of the Commonwealth System of …, priority 2019, published 2022)

Tested on: NMNAT2
Test: NMNAT2-Hibit nano-luciferase activity in stably transfected U87MG cells, various concentrations, 24 hours
Type: cell-based
Details: U87MG cells stably transfected with NMNAT2-Hibit luc plasmid
Method: Selected compounds were tested in vitro. U87MG cells were stably transfected with NMNAT2-Hibit luc plasmid. Cells were treated with a test compound at various concentrations for 24 hours. Cells were then collected and assayed for nano-luciferase activity.

Row | Compound | E: compound efficacy for NMNAT2 activation (concentration giving >25% increase in NMNAT2 luciferase activity)
1 | Cc1ccccc1Cn1c(C)c(C)c2cc(C(=O)O)ccc21 [BC20306] | + (“+” >25% increase in NMNAT2 luciferase activity at >25 μM.)
2 | Cc1c(C)n(Cc2ccccc2)c2ccc(C(=O)N3CCc4occc4C3)cc12 [BC20307] | + (“+” >25% increase in NMNAT2 luciferase activity at >25 μM.)
3 | O=C(NCc1ccco1)N1CCc2c(c3ccccc3n2Cc2cccc(F)c2)C1 [BC20308] | ++ (“++” >25% increase in NMNAT2 luciferase activity at >1 μM ≤25 μM.)
4 | O=C(NCc1cccc(F)c1)N1CCc2c(c3ccccc3n2Cc2cccc(F)c2)C1 [BC20309] | + (“+” >25% increase in NMNAT2 luciferase activity at >25 μM.)
5 | COc1cccc(CNC(=O)N2CCc3c(c4ccccc4n3Cc3cccc(F)c3)C2)c1 [BC20310] | + (“+” >25% increase in NMNAT2 luciferase activity at >25 μM.)
6 | O=C(NCCc1ccccc1)N1CCc2c(c3ccccc3n2Cc2cccc(F)c2)C1 [BC20311] | + (“+” >25% increase in NMNAT2 luciferase activity at >25 μM.)
7 | Cc1cccc(NC(=O)N2CCc3c(c4ccccc4n3Cc3cccc(F)c3)C2)c1C [BC20312] | + (“+” >25% increase in NMNAT2 luciferase activity at >25 μM.)
8 | Cc1ccc(C)c(Cn2cc3c4c(cccc42)C(=O)NCC3)c1 [BC20313] | + (“+” >25% increase in NMNAT2 luciferase activity at >25 μM.)
9 | Cc1ccccc1CCN1CCc2cn(Cc3cccc(F)c3)c3cccc(c23)C1=O [BC20314] | + (“+” >25% increase in NMNAT2 luciferase activity at >25 μM.)
10 | O=C1NCCc2cn(Cc3cccc(F)c3)c3cccc1c23 [BC20315] | + (“+” >25% increase in NMNAT2 luciferase activity at >25 μM.)
11 | O=C(NCc1cccc(F)c1)C1CCc2c(c3ccccc3n2Cc2ccncc2)C1 (stereo not drawn) [BC20316] | + (“+” >25% increase in NMNAT2 luciferase activity at >25 μM.)
12 | O=C(NCc1cccnc1)C1CCc2c(c3ccccc3n2Cc2ccncc2)C1 (stereo not drawn) [BC20317] | + (“+” >25% increase in NMNAT2 luciferase activity at >25 μM.)
13 | O=C1CC(c2cn(Cc3cccc(F)c3)c3ccccc23)CCN1Cc1ccccc1F (stereo not drawn) [BC20318] | + (“+” >25% increase in NMNAT2 luciferase activity at >25 μM.)
14 | O=C1CC(c2cn(Cc3cccc(F)c3)c3ccccc23)CCN1Cc1cccc(F)c1 (stereo not drawn) [BC20319] | + (“+” >25% increase in NMNAT2 luciferase activity at >25 μM.)
15 | Cc1ccccc1CN1CCC(c2cn(Cc3cccc(F)c3)c3ccccc23)CC1=O (stereo not drawn) [BC20320] | + (“+” >25% increase in NMNAT2 luciferase activity at >25 μM.)
16 | Cc1cccc(CN2CCC(c3cn(Cc4cccc(F)c4)c4ccccc34)CC2=O)c1 (stereo not drawn) [BC20321] | + (“+” >25% increase in NMNAT2 luciferase activity at >25 μM.)
17 | O=C1CC(c2cn(Cc3cccc(F)c3)c3ccccc23)CCN1Cc1ccncc1 (stereo not drawn) [BC20322] | ++ (“++” >25% increase in NMNAT2 luciferase activity at >1 μM ≤25 μM.)
18 | O=C(Cn1c2c(c3ccccc31)CN(C(=O)NCc1ccco1)CC2)NCc1ccco1 [BC20327] | + (“+” >25% increase in NMNAT2 luciferase activity at >25 μM.)
19 | O=C(Cn1c2c(c3ccccc31)CN(C(=O)NCC1CCCO1)CC2)NCc1ccco1 (stereo not drawn) [BC20328] | + (“+” >25% increase in NMNAT2 luciferase activity at >25 μM.)
20 | O=C(Cn1c2c(c3ccccc31)CN(C(=O)NCCc1ccccc1)CC2)NCc1ccco1 [BC20329] | + (“+” >25% increase in NMNAT2 luciferase activity at >25 μM.)
21 | COc1ccc(CNC(=O)N2CCc3c(c4ccccc4n3CC(=O)NCc3ccco3)C2)cc1 [BC20330] | ++ (“++” >25% increase in NMNAT2 luciferase activity at >1 μM ≤25 μM.)
22 | Cc1ccc(CNC(=O)N2CCc3c(c4ccccc4n3Cc3cccc(F)c3)C2)cc1 [BC20331] | + (“+” >25% increase in NMNAT2 luciferase activity at >25 μM.)
23 | COc1ccc(CNC(=O)N2CCc3c(c4ccccc4n3Cc3cccc(F)c3)C2)cc1 [BC20332] | ++ (“++” >25% increase in NMNAT2 luciferase activity at >1 μM ≤25 μM.)
24 | Fc1cccc(Cn2c3c(c4ccccc42)CNCC3)c1 [BC20333] | ++ (“++” >25% increase in NMNAT2 luciferase activity at >1 μM ≤25 μM.)

Row | Compound | E: compound efficacy for NMNAT2 activation (concentration giving >25% increase in NMNAT2 luciferase activity)
25 | O=C(NCc1cccc(F)c1)N1CCc2c(c3ccccc3n2Cc2ccncc2)C1 [BC20334] | + (“+” >25% increase in NMNAT2 luciferase activity at >25 μM.)
26 | O=C(NCCc1ccccc1)N1CCc2c(c3ccccc3n2Cc2ccncc2)C1 [BC20335] | + (“+” >25% increase in NMNAT2 luciferase activity at >25 μM.)
27 | Cc1cccc(NC(=O)N2CCc3c(c4ccccc4n3Cc3ccncc3)C2)c1C [BC20336] | + (“+” >25% increase in NMNAT2 luciferase activity at >25 μM.)
28 | Cc1ccc(CNC(=O)N2CCc3c(c4ccccc4n3Cc3ccncc3)C2)cc1 [BC20337] | + (“+” >25% increase in NMNAT2 luciferase activity at >25 μM.)
29 | COc1ccc(CNC(=O)N2CCc3c(c4ccccc4n3Cc3ccncc3)C2)cc1 [BC20338] | + (“+” >25% increase in NMNAT2 luciferase activity at >25 μM.)
30 | O=C1CC(c2cn(Cc3cccc(F)c3)c3ccccc23)CCN1 (stereo not drawn) [BC20339] | + (“+” >25% increase in NMNAT2 luciferase activity at >25 μM.)
31 | O=C1CC(c2cn(Cc3cccc(F)c3)c3ccccc23)CCN1CCOc1ccc(F)cc1 (stereo not drawn) [BC20340] | + (“+” >25% increase in NMNAT2 luciferase activity at >25 μM.)
32 | O=C1c2cccc3c2c(cn3Cc2cccc(F)c2)CCN1CCOc1ccccc1 [BC20341] | + (“+” >25% increase in NMNAT2 luciferase activity at >25 μM.)
33 | O=C1c2cccc3c2c(cn3Cc2cccc(F)c2)CCN1CCOc1ccc(F)cc1 [BC20342] | + (“+” >25% increase in NMNAT2 luciferase activity at >25 μM.)
34 | Cc1ccc(C)c(Cn2cc3c4c(cccc42)C(=O)N(CCOc2ccccc2)CC3)c1 [BC20343] | + (“+” >25% increase in NMNAT2 luciferase activity at >25 μM.)
35 | Cc1ccc(C)c(Cn2c(C(F)F)c(CCC(=O)NCc3ccco3)c3ccccc32)c1 [BC20354] | + (“+” >25% increase in NMNAT2 luciferase activity at >25 μM.)
36 | O=C(Cn1cc2c3c(cccc31)C(=O)N(Cc1cccc(F)c1)CC2)NCc1cccc(F)c1 [BC20355] | ++ (“++” >25% increase in NMNAT2 luciferase activity at >1 μM ≤25 μM.)
37 | Cc1ccccc1CNC(=O)Cn1cc2c3c(cccc31)C(=O)N(Cc1cccc(F)c1)CC2 [BC20356] | + (“+” >25% increase in NMNAT2 luciferase activity at >25 μM.)
38 | O=C(NCc1ccco1)N1CCc2c(c3ccccc3n2Cc2ccncc2)C1 [BC20357] | ++ (“++” >25% increase in NMNAT2 luciferase activity at >1 μM ≤25 μM.)
39 | O=C(NCC1CCCO1)N1CCc2c(c3ccccc3n2Cc2ccncc2)C1 (stereo not drawn) [BC20358] | + (“+” >25% increase in NMNAT2 luciferase activity at >25 μM.)
40 | O=C(Nc1cc(F)ccc1F)N1CCc2c(c3ccccc3n2Cc2cccc(F)c2)C1 [BC20361] | ++ (“++” >25% increase in NMNAT2 luciferase activity at >1 μM ≤25 μM.)
41 | O=C(Nc1cccc(C(F)(F)F)c1)N1CCc2c(c3ccccc3n2Cc2cccc(F)c2)C1 [BC20362] | ++ (“++” >25% increase in NMNAT2 luciferase activity at >1 μM ≤25 μM.)
42 | Cc1ccc(C)c(Cn2c(C(F)F)c(CCC(=O)NCc3ccc(C)o3)c3ccccc32)c1 [BC20367] | ++ (“++” >25% increase in NMNAT2 luciferase activity at >1 μM ≤25 μM.)
43 | O=C(NCc1ccco1)C1CCCc2c1c1ccccc1n2Cc1cccc(F)c1 (stereo not drawn) [BC20368] | ++ (“++” >25% increase in NMNAT2 luciferase activity at >1 μM ≤25 μM.)
44 | Cc1ccc(CNC(=O)C2CCCc3c2c2ccccc2n3Cc2cccc(F)c2)o1 (stereo not drawn) [BC20369] | ++ (“++” >25% increase in NMNAT2 luciferase activity at >1 μM ≤25 μM.)
45 | O=C(NCC1CCCO1)C1CCCc2c1c1ccccc1n2Cc1cccc(F)c1 (stereo not drawn) [BC20370] | + (“+” >25% increase in NMNAT2 luciferase activity at >25 μM.)
46 | O=C(NCc1cccc(F)c1)C1CCCc2c1c1ccccc1n2Cc1cccc(F)c1 (stereo not drawn) [BC20371] | ++ (“++” >25% increase in NMNAT2 luciferase activity at >1 μM ≤25 μM.)
47 | Cc1ccccc1CNC(=O)C1CCCc2c1c1ccccc1n2Cc1cccc(F)c1 (stereo not drawn) [BC20372] | + (“+” >25% increase in NMNAT2 luciferase activity at >25 μM.)
48 | Cc1cccc(CNC(=O)C2CCCc3c2c2ccccc2n3Cc2cccc(F)c2)c1 (stereo not drawn) [BC20373] | + (“+” >25% increase in NMNAT2 luciferase activity at >25 μM.)
